Assay results taken from publication PMC9005681, “Use of AD Informer Set compounds to explore validity of novel targets in Alzheimer's disease pathology” (Alzheimer's & Dementia : Translational Research & Clinical …, 2022).
Where “and” joins values, the source holds several entries; their conditions need not be identical. Equal values may be shown once.

Experiments:
Assay in all cases: PDSP GPCR panel primary binding assays at 10 μM
Conditions in all cases: primary assay
[1] = target: T1, cloned human or rodent CNS receptors, channels, and transporters (PDSP panel) (Homo sapiens, UniProt P34969)
T1 construct: expressed in transfected cells
T1 sequence (P34969 whole entry): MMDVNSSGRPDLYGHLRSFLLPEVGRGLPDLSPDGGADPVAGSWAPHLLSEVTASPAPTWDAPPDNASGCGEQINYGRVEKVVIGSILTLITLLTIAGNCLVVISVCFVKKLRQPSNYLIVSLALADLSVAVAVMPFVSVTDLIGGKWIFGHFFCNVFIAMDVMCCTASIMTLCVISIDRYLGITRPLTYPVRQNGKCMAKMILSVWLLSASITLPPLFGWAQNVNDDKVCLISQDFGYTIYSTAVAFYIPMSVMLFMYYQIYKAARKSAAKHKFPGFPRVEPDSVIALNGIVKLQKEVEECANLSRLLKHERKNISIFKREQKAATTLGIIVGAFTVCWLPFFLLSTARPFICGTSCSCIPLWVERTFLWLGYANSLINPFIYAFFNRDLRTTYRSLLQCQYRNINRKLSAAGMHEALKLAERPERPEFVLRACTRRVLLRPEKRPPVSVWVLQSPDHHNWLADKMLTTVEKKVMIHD
In short: (§1)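 PDSP panel of 46–47 cloned human or rodent CNS receptors, channels and transporters; radioligand displacement by compound at 10 μM, in quadruplicate. Where average displacement exceeded 50%, secondary binding followed as 11-point dose-response in triplicate (none for H3, PBR or GABAA).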

[2] = target: T2, cloned human or rodent CNS receptors, channels, and transporters (PDSP panel) (Homo sapiens, UniProt P08172)
T2 construct: expressed in transfected cells
T2 sequence (P08172 1-466): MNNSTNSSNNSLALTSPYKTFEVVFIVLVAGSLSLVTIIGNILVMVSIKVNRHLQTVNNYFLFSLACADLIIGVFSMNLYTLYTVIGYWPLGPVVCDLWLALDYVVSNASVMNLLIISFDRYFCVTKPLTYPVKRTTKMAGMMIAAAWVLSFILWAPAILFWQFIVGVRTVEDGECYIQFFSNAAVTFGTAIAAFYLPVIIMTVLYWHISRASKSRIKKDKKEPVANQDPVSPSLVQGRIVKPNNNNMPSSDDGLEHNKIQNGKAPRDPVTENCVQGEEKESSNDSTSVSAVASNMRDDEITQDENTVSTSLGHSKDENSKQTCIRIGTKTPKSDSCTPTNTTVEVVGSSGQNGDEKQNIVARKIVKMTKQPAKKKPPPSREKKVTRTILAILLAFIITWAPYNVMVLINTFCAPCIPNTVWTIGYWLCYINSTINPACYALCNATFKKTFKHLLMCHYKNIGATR
In short: as §1

[3] = target: T3, cloned human or rodent CNS receptors, channels, and transporters (PDSP panel) (Homo sapiens, UniProt P28335)
T3 construct: expressed in transfected cells
T3 sequence (P28335 33-458): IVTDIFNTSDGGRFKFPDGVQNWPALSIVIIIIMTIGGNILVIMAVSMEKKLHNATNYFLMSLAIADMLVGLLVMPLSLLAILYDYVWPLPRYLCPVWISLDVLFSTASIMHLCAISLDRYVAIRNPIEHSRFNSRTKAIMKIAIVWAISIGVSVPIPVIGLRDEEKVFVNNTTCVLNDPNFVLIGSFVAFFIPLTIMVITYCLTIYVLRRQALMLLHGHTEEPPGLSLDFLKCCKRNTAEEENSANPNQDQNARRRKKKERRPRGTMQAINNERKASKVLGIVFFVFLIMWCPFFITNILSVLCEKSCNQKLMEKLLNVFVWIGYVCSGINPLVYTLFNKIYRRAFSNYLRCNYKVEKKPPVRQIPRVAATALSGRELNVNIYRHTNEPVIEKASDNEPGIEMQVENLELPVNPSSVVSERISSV
In short: as §1

[4] = target: T4, cloned human or rodent CNS receptors, channels, and transporters (PDSP panel) (Homo sapiens, UniProt P47898)
T4 construct: expressed in transfected cells
T4 sequence (P47898 whole entry): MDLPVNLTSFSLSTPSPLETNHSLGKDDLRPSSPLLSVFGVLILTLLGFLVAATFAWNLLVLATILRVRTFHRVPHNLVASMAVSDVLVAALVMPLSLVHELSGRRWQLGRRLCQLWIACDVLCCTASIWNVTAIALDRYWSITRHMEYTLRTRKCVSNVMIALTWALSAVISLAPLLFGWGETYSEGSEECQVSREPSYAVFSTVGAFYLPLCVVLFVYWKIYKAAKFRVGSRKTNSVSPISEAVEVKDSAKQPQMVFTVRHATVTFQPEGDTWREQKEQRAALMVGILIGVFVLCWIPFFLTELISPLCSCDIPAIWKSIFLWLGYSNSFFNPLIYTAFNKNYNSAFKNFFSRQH
In short: as §1

[5] = target: T5, cloned human or rodent CNS receptors, channels, and transporters (PDSP panel) (Homo sapiens, UniProt P21728)
T5 construct: expressed in transfected cells
T5 sequence (P21728 whole entry): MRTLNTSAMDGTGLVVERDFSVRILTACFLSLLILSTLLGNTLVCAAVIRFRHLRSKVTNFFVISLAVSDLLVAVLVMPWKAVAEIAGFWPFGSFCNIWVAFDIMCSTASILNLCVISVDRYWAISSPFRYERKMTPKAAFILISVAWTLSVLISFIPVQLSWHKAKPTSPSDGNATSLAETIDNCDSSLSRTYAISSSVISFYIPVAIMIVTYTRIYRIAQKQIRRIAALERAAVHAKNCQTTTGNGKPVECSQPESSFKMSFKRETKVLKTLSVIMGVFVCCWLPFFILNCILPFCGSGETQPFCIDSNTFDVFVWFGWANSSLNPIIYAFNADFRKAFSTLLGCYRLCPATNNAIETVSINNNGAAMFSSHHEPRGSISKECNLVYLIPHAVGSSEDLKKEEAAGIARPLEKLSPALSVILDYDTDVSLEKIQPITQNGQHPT
In short: as §1

[6] = target: T6, cloned human or rodent CNS receptors, channels, and transporters (PDSP panel) (Homo sapiens, UniProt P46098)
T6 construct: expressed in transfected cells
T6 sequence (P46098 24-478): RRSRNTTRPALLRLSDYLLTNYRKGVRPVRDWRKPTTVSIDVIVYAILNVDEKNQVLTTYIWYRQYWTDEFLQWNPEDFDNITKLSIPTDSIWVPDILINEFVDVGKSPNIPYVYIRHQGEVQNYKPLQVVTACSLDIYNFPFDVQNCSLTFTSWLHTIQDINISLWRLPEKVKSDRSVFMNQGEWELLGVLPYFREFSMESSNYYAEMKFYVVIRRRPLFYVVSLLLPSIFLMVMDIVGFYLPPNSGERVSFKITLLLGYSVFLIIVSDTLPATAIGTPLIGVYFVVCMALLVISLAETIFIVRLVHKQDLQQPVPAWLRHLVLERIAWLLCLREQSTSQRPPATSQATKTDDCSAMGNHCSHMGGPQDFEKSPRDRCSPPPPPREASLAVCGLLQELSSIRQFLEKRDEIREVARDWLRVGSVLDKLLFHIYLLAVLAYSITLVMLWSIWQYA
In short: as §1

[7] = target: T7, cloned human or rodent CNS receptors, channels, and transporters (PDSP panel) (Homo sapiens, UniProt Q01959)
T7 construct: expressed in transfected cells
T7 sequence (Q01959 whole entry): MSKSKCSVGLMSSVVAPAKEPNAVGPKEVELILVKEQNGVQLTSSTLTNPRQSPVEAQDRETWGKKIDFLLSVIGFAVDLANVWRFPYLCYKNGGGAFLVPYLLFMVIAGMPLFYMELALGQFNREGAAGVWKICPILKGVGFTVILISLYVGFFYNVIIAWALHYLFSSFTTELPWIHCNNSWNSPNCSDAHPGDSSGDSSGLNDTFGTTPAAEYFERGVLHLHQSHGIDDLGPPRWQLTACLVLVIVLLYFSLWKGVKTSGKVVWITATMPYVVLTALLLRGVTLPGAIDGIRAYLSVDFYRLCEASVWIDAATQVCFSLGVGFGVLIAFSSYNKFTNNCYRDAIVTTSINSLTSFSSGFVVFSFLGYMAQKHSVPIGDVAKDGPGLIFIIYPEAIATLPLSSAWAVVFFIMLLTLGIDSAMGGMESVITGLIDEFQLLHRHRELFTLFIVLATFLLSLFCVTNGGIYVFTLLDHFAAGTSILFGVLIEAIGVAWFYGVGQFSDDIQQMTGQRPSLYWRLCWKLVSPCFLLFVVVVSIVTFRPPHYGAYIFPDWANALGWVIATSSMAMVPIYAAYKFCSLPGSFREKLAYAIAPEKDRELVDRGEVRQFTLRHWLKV
In short: as §1

[8] = target: T8, cloned human or rodent CNS receptors, channels, and transporters (PDSP panel) (Homo sapiens, UniProt P41145)
T8 construct: expressed in transfected cells
T8 sequence (P41145 whole entry): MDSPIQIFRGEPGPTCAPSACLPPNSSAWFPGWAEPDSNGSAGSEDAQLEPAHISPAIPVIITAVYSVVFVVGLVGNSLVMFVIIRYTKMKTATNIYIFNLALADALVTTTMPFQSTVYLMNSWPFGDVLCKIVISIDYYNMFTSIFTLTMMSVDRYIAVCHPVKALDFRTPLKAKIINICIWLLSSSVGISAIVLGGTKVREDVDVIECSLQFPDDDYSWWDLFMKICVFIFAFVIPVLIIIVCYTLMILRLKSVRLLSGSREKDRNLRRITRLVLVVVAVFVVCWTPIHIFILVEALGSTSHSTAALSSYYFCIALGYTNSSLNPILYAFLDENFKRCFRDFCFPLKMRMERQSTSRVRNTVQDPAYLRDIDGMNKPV
In short: as §1

CC(=O)N1CCC(NC(=O)NC23CC4CC(CC(C4)C2)C3)CC1 [UNC10302683A, AR9281]
Mean % ([1]; 5-HT7A, mean inhibition): 20.3%
Inhibition 1 ([1]; 5-HT7A, replicate 1): 4.73%
Inhibition 2 ([1]; 5-HT7A, replicate 2): 29.98%
Inhibition 3 ([1]; 5-HT7A, replicate 3): 12.78%
Inhibition 4 ([1]; 5-HT7A, replicate 4): 33.7%
Mean % ([2]; M2, mean inhibition): -10.23%
Inhibition 1 ([2]; M2, replicate 1): -16.19%
Inhibition 2 ([2]; M2, replicate 2): -6.36%
Inhibition 3 ([2]; M2, replicate 3): -14.96%
Inhibition 4 ([2]; M2, replicate 4): -3.41%
Mean % ([3]; 5-HT2C, mean inhibition): -19.88%
Inhibition 1 ([3]; 5-HT2C, replicate 1): -9.33%
Inhibition 2 ([3]; 5-HT2C, replicate 2): -11.78%
Inhibition 3 ([3]; 5-HT2C, replicate 3): -20.61%
Inhibition 4 ([3]; 5-HT2C, replicate 4): -37.79%
Mean % ([4]; 5-HT5A, mean inhibition): -4.79% and -3.44%
Inhibition 1 ([4]; 5-HT5A, replicate 1): 13.38% and 13.31%
Inhibition 2 ([4]; 5-HT5A, replicate 2): 8.95% and -14.87%
Inhibition 3 ([4]; 5-HT5A, replicate 3): -49.4% and -7.36%
Inhibition 4 ([4]; 5-HT5A, replicate 4): 7.91% and -4.85%
Mean % ([5]; D1, mean inhibition): -14.57%
Inhibition 1 ([5]; D1, replicate 1): -3.64%
Inhibition 2 ([5]; D1, replicate 2): -20.64%
Inhibition 3 ([5]; D1, replicate 3): -32.3%
Inhibition 4 ([5]; D1, replicate 4): -1.7%
Mean % ([6]; 5-HT3, mean inhibition): 13.87%
Inhibition 1 ([6]; 5-HT3, replicate 1): 9.48%
Inhibition 2 ([6]; 5-HT3, replicate 2): 13.6%
Inhibition 3 ([6]; 5-HT3, replicate 3): -1.71%
Inhibition 4 ([6]; 5-HT3, replicate 4): 34.11%
Mean % ([7]; DAT, mean inhibition): 71.25%
Inhibition 1 ([7]; DAT, replicate 1): 78.11%
Inhibition 2 ([7]; DAT, replicate 2): 65.9%
Inhibition 3 ([7]; DAT, replicate 3): 74.33%
Inhibition 4 ([7]; DAT, replicate 4): 66.66%
Mean % ([8]; KOR, mean inhibition): -25.19%
Inhibition 1 ([8]; KOR, replicate 1): -27.43%
Inhibition 2 ([8]; KOR, replicate 2): -29%
Inhibition 3 ([8]; KOR, replicate 3): -23.06%
Inhibition 4 ([8]; KOR, replicate 4): -21.27%

Cl.NC(=O)c1cnc(N[C@@H]2CCCC[C@@H]2N)nc1Nc1cccc(-n2nccn2)c1 [UNC10302682A, P505-15 (PRT06207 HCl)]
Inhibition 1 ([1]; Receptor 5-HT7A, 10 μM): 33.86%
Inhibition 2 ([1]; Receptor 5-HT7A, 10 μM): 20.22%
Inhibition 3 ([1]; Receptor 5-HT7A, 10 μM): 54.31%
Inhibition 4 ([1]; Receptor 5-HT7A, 10 μM): 52.91%
Mean % ([1]; Receptor 5-HT7A, 10 μM, mean of Inhibition 1-4): 40.33%
Inhibition 1 ([2]; Receptor M2, 10 μM): -1.69%
Inhibition 2 ([2]; Receptor M2, 10 μM): 2.24%
Inhibition 3 ([2]; Receptor M2, 10 μM): -4.88%
Inhibition 4 ([2]; Receptor M2, 10 μM): 1.51%
Mean % ([2]; Receptor M2, 10 μM, mean of Inhibition 1-4): -0.71%
Inhibition 1 ([3]; Receptor 5-HT2C, 10 μM): 78.04%
Inhibition 2 ([3]; Receptor 5-HT2C, 10 μM): 64.79%
Inhibition 3 ([3]; Receptor 5-HT2C, 10 μM): 67.73%
Inhibition 4 ([3]; Receptor 5-HT2C, 10 μM): 44.66%
Mean % ([3]; Receptor 5-HT2C, 10 μM, mean of Inhibition 1-4): 63.81%
Inhibition 1 ([4]; Receptor 5-HT5A, 10 μM): -3.51%
Inhibition 2 ([4]; Receptor 5-HT5A, 10 μM): -8.26%
Inhibition 3 ([4]; Receptor 5-HT5A, 10 μM): 4.4%
Inhibition 4 ([4]; Receptor 5-HT5A, 10 μM): 6.38%
Mean % ([4]; Receptor 5-HT5A, 10 μM, mean of Inhibition 1-4): -0.25%
Inhibition 1 ([5]; Receptor D1, 10 μM): 10.12%
Inhibition 2 ([5]; Receptor D1, 10 μM): 11.25%
Inhibition 3 ([5]; Receptor D1, 10 μM): 12.71%
Inhibition 4 ([5]; Receptor D1, 10 μM): 8.82%
Mean % ([5]; Receptor D1, 10 μM, mean of Inhibition 1-4): 10.73%
Inhibition 1 ([6]; Receptor 5-HT3, 10 μM): 66.83%
Inhibition 2 ([6]; Receptor 5-HT3, 10 μM): 77.09%
Inhibition 3 ([6]; Receptor 5-HT3, 10 μM): 73.28%
Inhibition 4 ([6]; Receptor 5-HT3, 10 μM): 75.45%
Mean % ([6]; Receptor 5-HT3, 10 μM, mean of Inhibition 1-4): 73.16%
Inhibition 1 ([7]; Receptor DAT, 10 μM): 65.15%
Inhibition 2 ([7]; Receptor DAT, 10 μM): 70.33%
Inhibition 3 ([7]; Receptor DAT, 10 μM): 66.98%
Inhibition 4 ([7]; Receptor DAT, 10 μM): 72.6%
Mean % ([7]; Receptor DAT, 10 μM, mean of Inhibition 1-4): 68.77%
Inhibition 1 ([8]; Receptor KOR, 10 μM): -6.83%
Inhibition 2 ([8]; Receptor KOR, 10 μM): -18.02%
Inhibition 3 ([8]; Receptor KOR, 10 μM): -46.91%
Inhibition 4 ([8]; Receptor KOR, 10 μM): -15.34%
Mean % ([8]; Receptor KOR, 10 μM, mean of Inhibition 1-4): -21.78%
